In one test the test system is UKE1 cells. Nature of the test: Growth inhibition GI50, UKE1 cells. The format is cell-based.
Another test concerns the target BRD4 (Homo sapiens (Human), UniProt O60885). Nature of the test: BRD4 DSF thermal shift (ΔTm). The format is binding. To be noted: for DSF ΔTm: Table 1; for BRD4 DSF (ΔTm): Table 2.
The next test relates to MM1.S cells. The test is described as follows: Antiproliferative activity, MM1.S cells. Particulars: Homo sapiens; for GI50: Table 2, read-out: GI50 (MM1S); for IC50: Table 1 comments. The test is classed as cell-based. Here is the method: Cellular activity of promising compounds is assessed using MM.1S and MV4-11 AML cells using c-Myc levels as biomarker (6-12 hr treatment) and antiproliferative activity (48-72 hr treatment) as described (Ciceri et al., Dual kinase-bromodomain inhibitors for rationally designed polypharmacology. Nat Chem Biol 2014).

The mark [1] stands for this setting: UKE1, Table 2, read-out: GI50 (UKE1).

Read-outs that look alike come from different tables or passages of the source.

One may read the GI50 as the concentration that inhibits growth by half. Consider `Cc1cnc(Nc2cc(F)c(C3CCN(C)CC3)cn2)nc1Nc1cccc(NS(=O)(=O)C(C)(C)C)n1` [MA11-038, N-(6-((2-((4-fluoro-5-(1-methylpiperidin-4-yl)pyridin-2-yl)amino)-5-methylpyrimidin-4-yl)amino)pyridin-2-yl)-2-methylpropane-2-sulfonamide], for which the concentration for 50% growth inhibition (GI50) with UKE1 cells (setting [1]) worked out at 5600 nM.
With `Cc1cnc(Nc2ccc(C3CCN(C)CC3)c(F)c2)nc1Nc1cc(F)cc(NS(=O)(=O)C(C)(C)C)c1` [PN3-052, N-(3-Fluoro-5-((2-((3-fluoro-4-(1-methylpiperidin-4-yl)phenyl)amino)-5-methylpyrimidin-4-yl)amino)phenyl)-2-methylpropane-2-sulfonamide], the 50% growth inhibitory concentration (GI50) with UKE1 cells (setting [1]) came to 270 nM.
With `Cc1cnc(Nc2cc(F)c(C3CCN(C)CC3)cn2)nc1Nc1cc(F)cc(NS(=O)(=O)C(C)(C)C)c1` [PN3-054, N-(3-Fluoro-5-((2-((4-fluoro-5-(1-methylpiperidin-4-yl)pyridin-2-yl)amino)-5-methylpyrimidin-4-yl)amino)phenyl)-2-methylpropane-2-sulfonamide], in the test with UKE1 cells (setting [1]), the 50% growth inhibitory concentration (GI50) is 449 nM.
Consider `Cc1cnc(Nc2ccc(C3CCN(C)CC3)c(F)c2)nc1Nc1cccc(NS(=O)(=O)C(C)(C)C)c1` [drawing 13], for which the “DSF ΔTm” value on BRD4 was found to be 12.3 °C. For the same molecule, the GI50 in the test on UKE1 cells (UKE1, Table 1 comments, read-out: GI50 (UKE1 cells)) amounted to 110 nM.
For the molecule `Cc1cnc(Nc2ccc(C3CCN(C)CC3)c(F)c2)nc1Nc1cnc(Cl)c(NS(=O)(=O)C(C)(C)C)c1` [MA11-016, N-(2-chloro-5-((2-((3-fluoro-4-(1-methylpiperidin-4-yl)phenyl)amino)-5-methylpyrimidin-4-yl)amino)pyridin-3-yl)-2-methylpropane-2-sulfonamide], the “BRD4 DSF (ΔTm)” value at BRD4 came to 14.8 °C. Besides, the GI50 in the test on UKE1 cells (setting [1]) came to 110 nM.
Regarding `Cc1cnc(Nc2ccc(C3CCN(C)CC3)c(F)c2)nc1Nc1cccc(NS(=O)(=O)C(C)(C)C)n1` [MA11-032, N-(6-((2-((3-fluoro-4-(1-methylpiperidin-4-yl)phenyl)amino)-5-methylpyrimidin-4-yl)amino)pyridin-2-yl)-2-methylpropane-2-sulfonamide], the GI50 in the test on UKE1 cells (setting [1]) is 385 nM.
Turning to `Cc1cnc(Nc2ccc(C3CCN(C)CC3)c(F)c2)nc1Nc1cc(Cl)cc(NS(=O)(=O)C(C)(C)C)c1` [PN3-076, N-(3-Chloro-5-((2-((3-fluoro-4-(1-methylpiperidin-4-yl)phenyl)amino)-5-methylpyrimidin-4-yl)amino)phenyl)-2-methylpropane-2-sulfonamide], the GI50 with UKE1 cells (setting [1]) was 1100 nM.
With `Cc1cnc(Nc2cc(F)c(C3CCN(C)CC3)c(F)c2)nc1Nc1ccc(F)c(NS(=O)(=O)C(C)(C)C)c1` [PN2-123, N-(5-((2-((3,5-Difluoro-4-(1-methylpiperidin-4-yl)phenyl)amino)-5-methylpyrimidin-4-yl)amino)-2-fluorophenyl)-2-methylpropane-2-sulfonamide], at BRD4, the “BRD4 DSF (ΔTm)” value is 14.7 °C. Besides, the 50% growth inhibitory concentration (GI50) with MM1.S cells worked out at 81 nM.
For `CN1CCC(c2ccc(Nc3ncc(I)c(Nc4ccc(Cl)c(NS(=O)(=O)C(C)(C)C)c4)n3)cc2F)CC1` [PN1-118, N-(2-Chloro-5-((2-((3-fluoro-4-(1-methylpiperidin-4-yl)phenyl)amino)-5-iodopyrimidin-4-yl)amino)phenyl)-2-methylpropane-2-sulfonamide], at BRD4, the “BRD4 DSF (ΔTm)” value was 11.6 °C. Further, in the test on MM1.S cells, the 50% growth inhibitory concentration (GI50) was found to be 210 nM.
On to `Cc1cnc(Nc2cc(F)c(C3CCN(C)CC3)cc2F)nc1Nc1ccc(Cl)c(NS(=O)(=O)C(C)(C)C)c1` [PN1-102, N-(2-Chloro-5-((2-((2,5-difluoro-4-(1-methylpiperidin-4-yl)phenyl)amino)-5-methylpyrimidin-4-yl)amino)phenyl)-2-methylpropane-2-sulfonamide], for which the “BRD4 DSF (ΔTm)” value at BRD4 was 11.4 °C. The 50% growth inhibitory concentration (GI50) in the test with MM1.S cells was found to be 320 nM.
With `Cc1cnc(Nc2cc(F)c(C3CCN(C)CC3)cn2)nc1Nc1cc(Cl)cc(NS(=O)(=O)C(C)(C)C)c1` [PN3-074, N-(3-Chloro-5-((2-((4-fluoro-5-(1-methylpiperidin-4-yl)pyridin-2-yl)amino)-5-methylpyrimidin-4-yl)amino)phenyl)-2-methylpropane-2-sulfonamide], in the test with UKE1 cells (setting [1]), the GI50 amounted to 937 nM.
Consider `CN1CCC(c2ccc(Nc3ncc(N)c(Nc4ccc(Cl)c(NS(=O)(=O)C(C)(C)C)c4)n3)cc2F)CC1` [PN1-140, N-(5-((5-Amino-2-((3-fluoro-4-(1-methylpiperidin-4-yl)phenyl)amino)pyrimidin-4-yl)amino)-2-chlorophenyl)-2-methylpropane-2-sulfonamide], for which the “BRD4 DSF (ΔTm)” value on BRD4 turned out to be 9.5 °C. Further, the GI50 with MM1.S cells amounted to 1800 nM.
Regarding `Cc1cnc(Nc2ccc(C3=CCN(C)CC3)c(F)c2)nc1Nc1ccc(Cl)c(NS(=O)(=O)C(C)(C)C)c1` [PN1-101, N-(2-Chloro-5-((2-((3-fluoro-4-(1-methyl-1,2,3,6-tetrahydropyridin-4-yl)phenyl)amino)-5-methylpyrimidin-4-yl)amino)phenyl)-2-methylpropane-2-sulfonamide], the “BRD4 DSF (ΔTm)” value at BRD4 was determined as 13.5 °C. For the same molecule, the 50% growth inhibitory concentration (GI50) in the test with MM1.S cells came out at 100 nM.
What is called IC50 is the concentration at which inhibition is half-maximal. For the molecule `Cc1cnc(Nc2cc(F)cc(N3CCN(C)CC3)c2)nc1Nc1ccc(Cl)c(NS(=O)(=O)C(C)(C)C)c1` [drawing 10], the “DSF ΔTm” value on BRD4 was determined as 11.1 °C. Moreover, the half-maximal inhibitory concentration (IC50) in the test with MM1.S cells turned out to be 160 nM.
For the molecule `Cc1cnc(Nc2ccc(C3CCN(C)CC3)c(F)n2)nc1Nc1cccc(NS(=O)(=O)C(C)(C)C)c1` [PN2-117, N-(3-((2-((6-Fluoro-5-(1-methylpiperidin-4-yl)pyridin-2-yl)amino)-5-methylpyrimidin-4-yl)amino)phenyl)-2-methylpropane-2-sulfonamide], on BRD4, the “BRD4 DSF (ΔTm)” value turned out to be 11.0 °C. Moreover, in the test with MM1.S cells, the GI50 turned out to be 153 nM.
For `CN1CCC(c2ccc(Nc3ncc(C(N)=O)c(Nc4ccc(Cl)c(NS(=O)(=O)C(C)(C)C)c4)n3)cc2F)CC1` [PN1-134, 4-((4-Chloro-3-((1,1-dimethylethyl)sulfonamido)phenyl)amino)-2-((3-fluoro-4-(1-methylpiperidin-4-yl)phenyl)amino)pyrimidine-5-carboxamide], the “BRD4 DSF (ΔTm)” value at BRD4 came to 13.7 °C. Also, in the test on MM1.S cells, the 50% growth inhibitory concentration (GI50) was determined as 580 nM.
For `Cc1ccc(Nc2nc(Nc3cc(F)c(C4CCN(C)CC4)c(F)c3)ncc2C)cc1NS(=O)(=O)C(C)(C)C` [PN2-174, N-(5-((2-((3,5-Difluoro-4-(1-methylpiperidin-4-yl)phenyl)amino)-5-methylpyrimidin-4-yl)amino)-2-methylphenyl)-2-methylpropane-2-sulfonamide], on BRD4, the “BRD4 DSF (ΔTm)” value was determined as 13.3 °C. The GI50 with UKE1 cells (setting [1]) was found to be 194 nM.
On to `Cc1cnc(Nc2ccc(C3CCN(C)CC3)c(F)c2)nc1Nc1ccc(F)c(NS(=O)(=O)C(C)(C)C)c1` [PN2-118, N-(2-Fluoro-5-((2-((3-fluoro-4-(1-methylpiperidin-4-yl)phenyl)amino)-5-methylpyrimidin-4-yl)amino)phenyl)-2-methylpropane-2-sulfonamide], for which, at BRD4, the “BRD4 DSF (ΔTm)” value is 13.0 °C. Besides, the GI50 with MM1.S cells was found to be 83 nM.
For the molecule `Cc1cnc(Nc2cc(F)c(C3CCN(C)CC3)c(F)c2)nc1Nc1cc(Cl)cc(NS(=O)(=O)C(C)(C)C)c1` [PN3-075, N-(3-Chloro-5-((2-((3,5-difluoro-4-(1-methylpiperidin-4-yl)phenyl)amino)-5-methylpyrimidin-4-yl)amino)phenyl)-2-methylpropane-2-sulfonamide], the GI50 in the test on UKE1 cells (setting [1]) turned out to be 556 nM.
In the case of `Cc1cnc(Nc2ccc(C3CCN(C)CC3)c(F)n2)nc1Nc1ccc(F)c(NS(=O)(=O)C(C)(C)C)c1` [PN2-116, N-(2-Fluoro-5-((2-((6-fluoro-5-(1-methylpiperidin-4-yl)pyridin-2-yl)amino)-5-methylpyrimidin-4-yl)amino)phenyl)-2-methylpropane-2-sulfonamide], the “BRD4 DSF (ΔTm)” value at BRD4 came out at 12.1 °C. Further, the concentration for 50% growth inhibition (GI50) in the test on MM1.S cells stood at 104 nM.
The matching figures for `Cc1cnc(Nc2cc(F)c(C3CCN(C)CC3)c(F)c2)nc1Nc1cccc(NS(=O)(=O)C(C)(C)C)c1` [PN2-124, N-(3-((2-((3,5-Difluoro-4-(1-methylpiperidin-4-yl)phenyl)amino)-5-methylpyrimidin-4-yl)amino)phenyl)-2-methylpropane-2-sulfonamide]: 13.4 °C and 80 nM.
In the same order, the values of `CN1CCC(c2ccc(Nc3ncc(C(F)F)c(Nc4ccc(Cl)c(NS(=O)(=O)C(C)(C)C)c4)n3)cc2F)CC1` [PN1-117, N-(2-Chloro-5-((5-(difluoromethyl)-2-((3-fluoro-4-(1-methylpiperidin-4-yl)phenyl)amino)pyrimidin-4-yl)amino)phenyl)-2-methylpropane-2-sulfonamide] are 12.7 °C and 240 nM.
In the same order, the values of `Cc1cnc(Nc2ccc(C3CCN(C)CC3)c(F)n2)nc1Nc1ccc(Cl)c(NS(=O)(=O)C(C)(C)C)c1` [PN2-102, N-(2-Chloro-5-((2-((6-fluoro-5-(1-methylpiperidin-4-yl)pyridin-2-yl)amino)-5-methylpyrimidin-4-yl)amino)phenyl)-2-methylpropane-2-sulfonamide] are 13.0 °C and 109 nM.
With `Cc1cnc(Nc2cc(F)c(C3CCN(C)CC3)c(F)c2)nc1Nc1ccc(Cl)c(NS(=O)(=O)C(C)(C)C)c1` [PN2-122, N-(2-Chloro-5-((2-((3,5-difluoro-4-(1-methylpiperidin-4-yl)phenyl)amino)-5-methylpyrimidin-4-yl)amino)phenyl)-2-methylpropane-2-sulfonamide], on BRD4, the “BRD4 DSF (ΔTm)” value came to 15.2 °C. Further, in the test with MM1.S cells, the concentration for 50% growth inhibition (GI50) turned out to be 93 nM.
With `Cc1cnc(Nc2cc(F)cc(N3CCN(C)CC3)c2)nc1Nc1cccc(NS(=O)(=O)C(C)(C)C)c1` [drawing 14], on BRD4, the “DSF ΔTm” value was found to be 11.1 °C. Further, in the test with MM1.S cells, half-maximal inhibition (IC50) required 220 nM.
With `Cc1cnc(Nc2cc(F)c(C3CCN(C)CC3)c(F)c2)nc1Nc1cc(F)cc(NS(=O)(=O)C(C)(C)C)c1` [PN3-053, N-(3-((2-((3,5-Difluoro-4-(1-methylpiperidin-4-yl)phenyl)amino)-5-methylpyrimidin-4-yl)amino)-5-fluorophenyl)-2-methylpropane-2-sulfonamide], in the test on UKE1 cells (setting [1]), the concentration for 50% growth inhibition (GI50) is 185 nM.
